The data set can be described thus: Franz diffusion cell permeation of salicylic acid across cadaver skin with/without flexure mode sonophoresis transducer. More on the design: species or system human. As to the method:
A similar experiment to that described in Example 1 was carried out using salicylic acid. […] About 20 ml donor solution (ppb) with excess (beyond solubility levels) of salicylic acid was added to the upper portion of the Franz cells atop the cadaver skin.

On to `O=C(O)c1ccccc1O` [salicylic acid], for which the “average sonophoretic drug flux” value (active cells, about 2 W/cm^2, about 27 kHz, about 200 V (rms), continuous duty cycle, about 7 cm^2 cadaver skin, first few hours) is recorded as “about 700 micrograms/cm^2 /hr”. The “average passive drug flux” value (four passive cells, no sonophoresis transducer, 2 cm^2 cadaver skin, 10 ml receptor fluid, 5 hr experiment) is “about 200 micrograms/cm^2 /hr”.

The record behind these values is US6322532A, “Sonophoresis method and apparatus” (3M Innovative Properties Company, priority 1999, dated 2001).
